Bounds are passed on as bounds.

Chain of recombinant human HPK1 (Q92918 whole entry): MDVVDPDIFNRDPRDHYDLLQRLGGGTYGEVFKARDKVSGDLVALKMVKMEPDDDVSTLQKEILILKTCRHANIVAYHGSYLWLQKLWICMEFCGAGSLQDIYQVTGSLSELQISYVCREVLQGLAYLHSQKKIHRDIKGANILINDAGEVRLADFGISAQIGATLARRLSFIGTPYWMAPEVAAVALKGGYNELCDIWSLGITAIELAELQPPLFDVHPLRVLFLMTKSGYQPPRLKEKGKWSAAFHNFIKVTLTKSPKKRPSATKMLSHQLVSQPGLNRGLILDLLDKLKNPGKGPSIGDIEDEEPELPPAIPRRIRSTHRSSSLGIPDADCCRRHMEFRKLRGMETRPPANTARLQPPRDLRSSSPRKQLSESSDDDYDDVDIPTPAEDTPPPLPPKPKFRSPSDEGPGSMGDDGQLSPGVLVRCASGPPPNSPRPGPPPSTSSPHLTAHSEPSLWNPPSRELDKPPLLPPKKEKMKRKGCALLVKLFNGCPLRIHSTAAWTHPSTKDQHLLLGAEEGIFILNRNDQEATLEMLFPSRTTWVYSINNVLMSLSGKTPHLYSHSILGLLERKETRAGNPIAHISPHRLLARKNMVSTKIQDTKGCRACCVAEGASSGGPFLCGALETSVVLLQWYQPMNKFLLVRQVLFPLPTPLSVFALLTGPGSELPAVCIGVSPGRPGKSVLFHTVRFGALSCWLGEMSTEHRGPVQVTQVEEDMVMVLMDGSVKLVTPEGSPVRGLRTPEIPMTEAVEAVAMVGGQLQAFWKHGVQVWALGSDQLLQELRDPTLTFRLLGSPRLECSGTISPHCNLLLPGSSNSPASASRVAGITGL

The target in the experiment is recombinant human HPK1 (Homo sapiens (Human), UniProt Q92918). Kind of experiment: HPK1 kinase assay (ADP-Glo). The class given is biochemical. To be noted: 25 μM ATP, MBP substrate. In a few lines:
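Activity was read as ADP formed, detected by ADP-Glo luminescence after the reaction of 5 ng recombinant human HPK1 with MBP and ATP (stocks 0.5 μg/μl and 25 μM) for 40 min at 30 °C. Buffer was Tris pH 7.5 with MgCl2, BSA and DTT, with compound in 0.5% DMSO. IC50 came from inhibition curves.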
For orientation: ADP-Glo first removes unused ATP, then detects ADP through luciferase.
The IC50 is the concentration that gives 50% inhibition. Turning to `O=C(Nc1cn2cc(-c3c(C(F)F)c(F)cc4[nH]ncc34)ccc2n1)C1CC1` [Example 255, N-(6-(5-(difluoromethyl)-6-fluoro-1H-indazol-4-yl)imidazo[1,2-a]pyridin-2-yl)cyclopropanecarboxamide], the 50% inhibitory concentration (IC50) was less than 100 nM.

`O=C(Nc1cc2cc(-c3c(Cl)c(F)c(-n4cccc4)c4[nH]ncc34)ccn2n1)[C@@H]1C[C@@H]1F` [Example 637, (1S,2S)-N-(5-(5-chloro-6-fluoro-7-(1H-pyrrol-1-yl)-1H-indazol-4-yl)pyrazolo[1,5-a]pyridin-2-yl)-2-fluorocyclopropane-1-carboxamide]: the IC50 was less than 100 nM.

For the compound `CNC(=O)OCCN(C)c1c(F)c(C)c(-c2ccn3nc(NC(=O)[C@@H]4C[C@@H]4F)cc3c2)c2cn[nH]c12` [Example 580, 2-((6-fluoro-4-(2-((1S,2S)-2-fluorocyclopropane-1-carboxamido)pyrazolo[1,5-a]pyridin-5-yl)-5-methyl-1H-indazol-7-yl)(methyl)amino)ethyl methylcarbamate], the concentration for half-maximal inhibition (IC50) was less than 100 nM.

Turning to `CSc1c(F)c(Cl)c(-c2ccn3nc(NC(=O)O[C@@H]4COC[C@H]4C)cc3c2)c2cn[nH]c12` [Example 645, (3S,4R)-4-methyltetrahydrofuran-3-yl (5-(5-chloro-6-fluoro-7-(methylthio)-1H-indazol-4-yl)pyrazolo[1,5-a]pyridin-2-yl)carbamate], the IC50 is less than 100 nM.

Regarding `CC(NC(=O)C1CCC1)c1c(F)c(Cl)c(-c2ccn3nc(NC(=O)[C@@H]4C[C@@H]4F)cc3c2)c2cn[nH]c12` (stereo partly drawn) [Example 661, N-(1-(5-chloro-6-fluoro-4-(2-((1S,2S)-2-fluorocyclopropane-1-carboxamido)pyrazolo[1,5-a]pyridin-5-yl)-1H-indazol-7-yl)ethyl)cyclobutanecarboxamide], the 50% inhibitory concentration (IC50) is less than 100 nM.

Consider `CN(c1ncccn1)c1c(F)c(Cl)c(-c2ccc3nc(NC(=O)[C@@H]4C[C@@H]4F)cn3c2)c2cn[nH]c12` [Example 346, (1S,2S)-N-(6-(5-chloro-6-fluoro-7-(methyl(pyrimidin-2-yl)amino)-1H-indazol-4-yl)imidazo[1,2-a]pyridin-2-yl)-2-fluorocyclopropane-1-carboxamide], for which the IC50 is less than 100 nM.

As to `Cc1ccc2[nH]ncc2c1-c1ccc2nc(NC(=O)[C@@H]3C[C@@H]3F)sc2n1` [Example 146, (1S,2S)-2-fluoro-N-(5-(5-methyl-1H-indazol-4-yl)thiazolo[5,4-b]pyridin-2-yl)cyclopropane-1-carboxamide], the IC50 is 101 to 500 nM.

`CC(c1c(F)c(Cl)c(-c2ccc3nc(NC(=O)[C@@H]4C[C@@H]4F)cn3c2)c2cn[nH]c12)n1cnnn1` (stereo partly drawn) [Example 398, (1S,2S)-N-(6-(7-(1-(1H-tetrazol-1-yl)ethyl)-5-chloro-6-fluoro-1H-indazol-4-yl)imidazo[1,2-a]pyridin-2-yl)-2-fluorocyclopropane-1-carboxamide]: the 50% inhibitory concentration (IC50) was less than 100 nM.

Turning to `CC(C)c1c(F)cc2[nH]ncc2c1-c1ccc2nc(NC(=O)C3CC3)cn2c1` [Example 246, N-(6-(6-fluoro-5-isopropyl-1H-indazol-4-yl)imidazo[1,2-a]pyridin-2-yl)cyclopropanecarboxamide], the IC50 is less than 100 nM.

For `C[C@H](c1c(F)c(Cl)c(-c2ccc3nc(NC(=O)[C@@H]4C[C@@H]4F)cn3c2)c2cn[nH]c12)n1cnnn1` [Example 413], the half-inhibitory concentration (IC50) is less than 100 nM.

As to `CCc1ccc2[nH]ncc2c1-c1ccc2nc(NC(=O)C3CC3)cn2c1` [Example 234, N-(6-(5-ethyl-1H-indazol-4-yl)imidazo[1,2-a]pyridin-2-yl)cyclopropanecarboxamide], the IC50 is more than 1000 nM.

Consider `O=C(Nc1cn2cc(-c3c(Cl)ccc4[nH]ncc34)ccc2n1)C1CC1` [Example 223, N-(6-(5-chloro-1H-indazol-4-yl)imidazo[1,2-a]pyridin-2-yl)cyclopropanecarboxamide], for which the IC50 was less than 100 nM.

As for `O=C(Nc1cc2cc(-c3c(Cl)c(F)c(C(F)F)c4[nH]ncc34)ccn2n1)[C@@H]1C[C@@H]1F` [Example 581, (1S,2S)-N-(5-(5-chloro-7-(difluoromethyl)-6-fluoro-1H-indazol-4-yl)pyrazolo[1,5-a]pyridin-2-yl)-2-fluorocyclopropane-1-carboxamide], the 50% inhibitory concentration (IC50) was less than 100 nM.

`CCc1c(F)c(C(F)(F)F)c2[nH]ncc2c1-c1ccn2nc(NC(=O)[C@@H]3C[C@@H]3F)cc2c1` [Example 585, (1S,2S)-N-(5-(5-ethyl-6-fluoro-7-(trifluoromethyl)-1H-indazol-4-yl)pyrazolo[1,5-a]pyridin-2-yl)-2-fluorocyclopropane-1-carboxamide]: the half-inhibitory concentration (IC50) was less than 100 nM.

On to `C=Cc1cc(C)c(-c2ccc3nc(NC(=O)[C@@H]4C[C@@H]4F)cn3c2)c2cn[nH]c12` [Example 264, (1S,2S)-2-fluoro-N-(6-(5-methyl-7-vinyl-1H-indazol-4-yl)imidazo[1,2-a]pyridin-2-yl)cyclopropane-1-carboxamide], for which the half-inhibitory concentration (IC50) is less than 100 nM.

In the case of `CCOc1c(F)c(C)c(-c2ccc3nc(NC(=O)[C@@H]4C[C@@H]4F)sc3c2)c2cn[nH]c12` [Example 98, (1S,2S)-N-(6-(7-ethoxy-6-fluoro-5-methyl-1H-indazol-4-yl)benzo[d]thiazol-2-yl)-2-fluorocyclopropanecatboxamide], the concentration for half-maximal inhibition (IC50) is less than 100 nM.

As to `Cc1c(F)c(C(=O)N(C)C)c2[nH]ncc2c1-c1ccc2nc(NC(=O)[C@@H]3C[C@@H]3F)sc2n1` [Example 197, 6-fluoro-4-(2-((1S,2S)-2-fluorocyclopropane-1-carboxamido)thiazolo[5,4-b]pyridin-5-yl)-N,N,5-trimethyl-1H-indazole-7-carboxamide], the half-maximal inhibitory concentration (IC50) is less than 100 nM.

Consider `CCOCc1c(F)c(Cl)c(-c2ccc3nc(NC(=O)[C@@H]4C[C@@H]4F)cn3c2)c2cn[nH]c12` [Example 391, (1S,2S)-N-(6-(5-chloro-7-(ethoxymethyl)-6-fluoro-1H-indazol-4-yl)imidazo[1,2-a]pyridin-2-yl)-2-fluorocyclopropane-1-carboxamide], for which the IC50 is less than 100 nM.

For the compound `CN(c1ncccn1)c1c(F)c(Cl)c(-c2ccn3nc(NC(=O)[C@@H]4C[C@@H]4F)cc3c2)c2cn[nH]c12` [Example 596, (1S,2S)-N-(5-(5-chloro-6-fluoro-7-(methyl(pyrimidin-2-yl)amino)-1H-indazol-4-yl)pyrazolo[1,5-a]pyridin-2-yl)-2-fluorocyclopropane-1-carboxamide], the IC50 is less than 100 nM.

Consider `CC(=O)c1c(F)c(Cl)c(-c2ccc3nc(NC(=O)[C@@H]4C[C@@H]4F)cn3c2)c2cn[nH]c12` [Example 319, (1S,2S)-N-(6-(7-acetyl-5-chloro-6-fluoro-1H-indazol-4-yl)imidazo[1,2-a]pyridin-2-yl)-2-fluorocyclopropane-1-carboxamide], for which the half-maximal inhibitory concentration (IC50) was less than 100 nM.

In the case of `Cc1c(F)c(N(C)CCO)c2[nH]ncc2c1-c1ccc2nc(NC(=O)[C@@H]3C[C@@H]3F)sc2n1` [Example 204, (1S,2S)-2-fluoro-N-(5-(6-fluoro-7-((2-hydroxyethyl)(methyl)amino)-5-methyl-1H-indazol-4-yl)thiazolo[5,4-b]pyridin-2-yl)cyclopropane-1-carboxamide], the half-inhibitory concentration (IC50) was less than 100 nM.

For the compound `CCc1c(F)c(N(C)CC)c2[nH]ncc2c1-c1ccc2nc(NC(=O)[C@@H]3C[C@@H]3F)sc2c1` [Example 136, (1S,2S)-N-(6-(5-ethyl-7-(ethyl(methyl)amino)-6-fluoro-1H-indazol-4-yl)benzo[d]thiazol-2-yl)-2-fluorocyclopropane-1-carboxamide], the IC50 is less than 100 nM.

Values taken from US11649255B2, “Indazoles as hematopoietic progenitor kinase 1 (HPK1) inhibitors and methods using same” (1st Biotherapeutics, Inc., priority 2020, dated 2023).
